Laboratory results reported in patent publication US7691594B2, “Anticancer agent” (Fujifilm Corporation, priority 2006, dated 2010).

Columns and labels:
[1] = test system: messenger RNA of PCDH20 gene in ABC-1 cells; experiment: RT-PCR of PCDH20 gene messenger RNA expression after inhibitor treatment, ABC-1 cells; assay type: cell-based, human
Method: (§1) Specifically, the results were obtained by adding either 5-aza-deoxycytidine (5-aza-dCyd) serving as a DNA methyltransferase inhibitor to each cell type at concentrations of 5 or 10 μM for 5 days and/or trichostatin A (TSA) serving as a non-specific inhibitory substance for histone deacetylase to each cell type at concentrations of […] or […] for 12 hours before cell harvest during culture, and then carrying out RT-PCR, followed by comparison of the expression levels of PCDH20 gene messenger RNA via electrophoresis. The expression level of GAPDH was used as a control in RT-PCR.
(§2) Cell lines used herein were squamous cell lines EBC-1, LK-2, PC10, VMRC-LCP, LC-1sq, and ACC-LC-73; adenocarcinoma cell lines 11-18, A549, ABC-1, RERF-LC-OK, VMRC-LCD, SK-LC-3, and RERF-LC-KJ; and large cell carcinoma cell lines KNS-62, 86-2, LU65, PC-13, ACC-LC-33, NCI-H460, and LU99A. As lung cancer samples derived from clinical specimens, paraffin-embedded samples derived from 53 types of adenocarcinoma and rapidly-frozen samples derived from 59 types of adjacent normal site were used. Cancer samples derived from clinical specimens were obtained from the National Cancer Center, Hokushin General Hospital of Nagano Prefectural Welfare Federation and used under agreement with each patient and approval of the ethical committee of each organization. […]

[2] = test system: messenger RNA of PCDH20 gene in LU65 cells; experiment: RT-PCR of PCDH20 gene messenger RNA expression after inhibitor treatment, LU65 cells; assay type: cell-based, human
Method: as §1, §2

[3] = 5-aza-dCyd 5 μM and 10 μM for 5 days, GAPDH control
[4] = TSA 100 ng/ml for 12 hours before harvest together with 5-aza-dCyd

SMILES | expression level of messenger RNA of PCDH20 gene (RT-PCR) [1, 3] | expression level of messenger RNA of PCDH20 gene (RT-PCR) [2, 3] | expression level of messenger RNA of PCDH20 gene (RT-PCR), combination [1, 4] | expression level of messenger RNA of PCDH20 gene (RT-PCR), combination [2, 4]
Nc1ncn([C@H]2C[C@H](O)[C@@H](CO)O2)c(=O)n1 [5-aza-deoxycytidine] | transcription suppression was canceled | transcription suppression was canceled |  | 
CC(/C=C/C(=O)NO)=C\[C@@H](C)C(=O)c1ccc(N(C)C)cc1 [trichostatin A] |  |  | elevated synergistically | elevated synergistically
